The values below come from ChEMBL document CHEMBL1201862, “PubChem BioAssay data set” (2004).

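Dose response: 5 concentrations. Exposure: 48 h. Format: 96-well plates. Endpoint: linear interpolation; highest concentration if not reached. GI50 = concentration required for 50% inhibition of growth.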 The source made the active and inactive calls. Rule as the data show it: active = GI50 up to about 1.1 µM and inactive = higher.

Some test systems named below: 786-0; A549; BT-549; COLO 205; DU-145; HCC 2998; HOP-62; K562; KM12; LOX IMVI; LXFL 529; NCI-H226; NCI/ADR-RES; OVCAR-5; OVCAR-8; RPMI-8226; SF-295; SK-OV-3; SW-620; UACC-62.
What all share (test): NCI anticancer screen, dose series, 48 h

Consider `CC1=C(/C=C/C(C)=C/C=C/C(C)=C/C(=O)O)C(C)(C)CCC1` [TRETINOIN], for which the GI50 was 49.9 µM (inactive) in the experiment with 786-0; 39.9 µM (inactive) in the experiment with A549; 37.3 µM (inactive) with BT-549; 49.3 µM (inactive) in the experiment with COLO 205; 55.3 µM (inactive) in the experiment with DU-145; 51.6 µM (inactive) with HCC 2998. The GI50 is 49.9 µM (inactive) in the experiment with HOP-62; 39.4 µM (inactive) in the experiment on K562; 42.3 µM (inactive) in the experiment with KM12; 31.9 µM (inactive) in the experiment on LOX IMVI; > 100 µM (inactive) in the experiment with LXFL 529; 43.4 µM (inactive) in the experiment with NCI-H226. Further, the GI50 in the experiment with NCI/ADR-RES was 37.3 µM (inactive); with OVCAR-5, > 68.5 µM (inactive); in the experiment on OVCAR-8, > 65.3 µM (inactive); with RPMI-8226, 1.34 µM (inactive); with SF-295, 54.8 µM (inactive); in the experiment with SK-OV-3, > 71.8 µM (inactive). Further, the GI50 is 45.8 µM (inactive) in the experiment on SW-620 and > 64.3 µM (inactive) with UACC-62.

With `Cc1ccc(O)c(C(=O)CCCC(=O)c2cc(C)ccc2O)c1`, the GI50 was 38.3 µM (inactive) with 786-0; > 100 µM (inactive) in the experiment with COLO 205; 0.152 µM (active) with HCC 2998; > 100 µM (inactive) with HOP-62; 35 µM (inactive) in the experiment on K562; > 100 µM (inactive) in the experiment on KM12. Moreover, the GI50 with LOX IMVI was 57.1 µM (inactive); in the experiment with LXFL 529 it was > 100 µM (inactive); in the experiment on NCI-H226 it was > 100 µM (inactive); in the experiment with OVCAR-5, > 100 µM (inactive); with OVCAR-8 it was > 100 µM (inactive); in the experiment with RPMI-8226 it was > 100 µM (inactive). For the same molecule, the GI50 in the experiment with SF-295 is > 100 µM (inactive); in the experiment on SK-OV-3, > 100 µM (inactive); with SW-620, 30.2 µM (inactive); in the experiment on UACC-62, > 100 µM (inactive).

Take `CC(C(=O)c1ccc(O)cc1)C1(O)C(=O)Nc2c(Cl)cc(Cl)cc21` (stereo not drawn): the GI50 in the experiment with 786-0 is 48.1 µM (inactive); in the experiment with A549, > 100 µM (inactive); in the experiment with COLO 205, > 100 µM (inactive); with HCC 2998, > 100 µM (inactive); in the experiment on HOP-62, > 100 µM (inactive); in the experiment on K562, 2.56 µM (inactive). In addition, the GI50 in the experiment with KM12 is > 87.3 µM (inactive); in the experiment with LOX IMVI it was 24.8 µM (inactive); with LXFL 529, 26.9 µM (inactive); in the experiment on NCI-H226, 19.1 µM (inactive); with OVCAR-5, > 100 µM (inactive); with OVCAR-8, 46.3 µM (inactive). The GI50 in the experiment with RPMI-8226 is 25.6 µM (inactive); in the experiment on SF-295, 45.4 µM (inactive); with SK-OV-3 it was > 100 µM (inactive); in the experiment with SW-620 it was 32.9 µM (inactive); in the experiment with UACC-62, 14 µM (inactive).

For `CCOC(=O)C=C1CCC2(CC1)OCCO2`, the GI50 in the experiment with 786-0, with A549, with COLO 205, in the experiment on DU-145, with HCC 2998 and in the experiment on K562 was > 100 µM (inactive) each time. Moreover, the GI50 in the experiment with KM12, with LOX IMVI, with LXFL 529, in the experiment with NCI-H226, in the experiment with OVCAR-5 and in the experiment with OVCAR-8 was > 100 µM (inactive) each time. Also, the GI50 in the experiment on RPMI-8226, in the experiment with SF-295, in the experiment on SK-OV-3, in the experiment with SW-620 and in the experiment with UACC-62 was > 100 µM (inactive) each time.

Take `Cc1ccc(C2(O)CC(c3ccc([N+](=O)[O-])o3)=NN2C(=O)COc2ccccc2Cl)cc1` (stereo not drawn): the GI50 with 786-0 was 5.75 µM (inactive); with A549, 18.1 µM (inactive); in the experiment on COLO 205, 3.78 µM (inactive); with HCC 2998, 10.4 µM (inactive); in the experiment with HOP-62, 29.2 µM (inactive); in the experiment on K562, 7.26 µM (inactive). Also, the GI50 in the experiment on KM12 was 8.83 µM (inactive); in the experiment on LOX IMVI it was 5.45 µM (inactive); in the experiment on LXFL 529 it was 6.59 µM (inactive); in the experiment with NCI-H226, 50.5 µM (inactive); in the experiment with OVCAR-5 it was 32.7 µM (inactive); in the experiment with OVCAR-8, 11.2 µM (inactive). Further, the GI50 in the experiment with RPMI-8226 is 3.53 µM (inactive); with SF-295, 15.3 µM (inactive); in the experiment on SK-OV-3, 81.1 µM (inactive); with SW-620, 6.7 µM (inactive); in the experiment with UACC-62 it was 3.91 µM (inactive).

In the case of `C#CCOCn1cnc2c(Sc3c([N+](=O)[O-])ncn3C)ncnc21`, the GI50 in the experiment on 786-0, in the experiment on A549, with COLO 205, in the experiment on HCC 2998, in the experiment on HOP-62 and in the experiment with K562 was > 100 µM (inactive) each time. The GI50 with KM12 was > 100 µM (inactive); with LOX IMVI it was > 100 µM (inactive); in the experiment with LXFL 529, 55.8 µM (inactive); in the experiment on NCI-H226, > 100 µM (inactive); in the experiment on OVCAR-5, > 100 µM (inactive); in the experiment with OVCAR-8, > 100 µM (inactive). The GI50 in the experiment on RPMI-8226, with SF-295, in the experiment on SK-OV-3, in the experiment on SW-620 and in the experiment with UACC-62 was > 100 µM (inactive) throughout.

In the case of `CC12OC3CC(O1)C1(C=O)C4CCC5(C)C(c6ccc(=O)oc6)CCC5(O)C4CCC1(C3)O2` (stereo not drawn), the GI50 in the experiment on 786-0 was 0.122 µM (active); in the experiment with A549, 0.0611 µM (active); with COLO 205, 0.483 µM (active); in the experiment with HCC 2998, 0.56 µM (active); with HOP-62, 0.146 µM (active); in the experiment on K562 it was 0.265 µM (active). For the same molecule, the GI50 is 0.379 µM (active) in the experiment with KM12; 0.177 µM (active) in the experiment on LOX IMVI; 0.139 µM (active) in the experiment with LXFL 529; 0.417 µM (active) in the experiment on NCI-H226; 0.383 µM (active) with OVCAR-5; 0.256 µM (active) in the experiment on OVCAR-8. Moreover, the GI50 with RPMI-8226 was 0.0313 µM (active); in the experiment with SF-295 it was 0.0986 µM (active); in the experiment on SK-OV-3 it was 0.213 µM (active); in the experiment with SW-620, 0.177 µM (active); in the experiment with UACC-62, 0.288 µM (active).

In the case of `COC(=O)C(=C\Sc1ccccc1)/C=C/C(=O)OC(C)(C)C`, the GI50 with 786-0 is 5.27 µM (inactive); in the experiment on A549 it was 18.3 µM (inactive); in the experiment on COLO 205 it was 5.3 µM (inactive); in the experiment with HCC 2998 it was 10.1 µM (inactive); in the experiment on HOP-62 it was 19.5 µM (inactive); in the experiment with K562 it was 3.01 µM (inactive). Also, the GI50 in the experiment with KM12 was 11.4 µM (inactive); in the experiment with LOX IMVI, 8.32 µM (inactive); with LXFL 529 it was 3.5 µM (inactive); with NCI-H226, 15.6 µM (inactive); with OVCAR-5, 15.4 µM (inactive); with OVCAR-8 it was 15.3 µM (inactive). For the same molecule, the GI50 in the experiment on RPMI-8226 is 3.06 µM (inactive); in the experiment with SF-295, 17.4 µM (inactive); with SK-OV-3 it was 24 µM (inactive); with SW-620 it was 3.8 µM (inactive); in the experiment with UACC-62, 15.3 µM (inactive).

Consider `CC(C)(Br)C(=O)C(Br)Br`, for which the GI50 was 13.8 µM (inactive) in the experiment with 786-0; 16.6 µM (inactive) with A549; 4.9 µM (inactive) in the experiment with BT-549; 2.74 µM (inactive) in the experiment on COLO 205; 33.7 µM (inactive) in the experiment on DU-145; 17.1 µM (inactive) with HCC 2998. Also, the GI50 in the experiment with HOP-62 was > 42.3 µM (inactive); in the experiment on K562, 2.95 µM (inactive); with KM12 it was 16.8 µM (inactive); with LOX IMVI it was 4.86 µM (inactive); with LXFL 529, 2.23 µM (inactive); with NCI-H226, 16.7 µM (inactive). Moreover, the GI50 in the experiment with NCI/ADR-RES is 4.82 µM (inactive); with OVCAR-5 it was 16.8 µM (inactive); in the experiment with OVCAR-8, 5.27 µM (inactive); in the experiment on SF-295 it was 18.7 µM (inactive); in the experiment with SK-OV-3 it was 17.5 µM (inactive); with SW-620, 1.89 µM (inactive). The GI50 in the experiment on UACC-62 is 10.5 µM (inactive).

Turning to `CCOC(=O)C(=O)NNc1nc2c(s1)C(=O)c1ccccc1C2=O`, the GI50 with 786-0 was 10.6 µM (inactive); with A549, 6.07 µM (inactive); with BT-549, 10.9 µM (inactive); in the experiment with COLO 205, 12.4 µM (inactive); in the experiment with DU-145, 17.7 µM (inactive); in the experiment with HCC 2998 it was 14.9 µM (inactive). Besides, the GI50 with HOP-62 was 10.8 µM (inactive); in the experiment on K562, 2.3 µM (inactive); with KM12, 9.27 µM (inactive); in the experiment on LOX IMVI it was 1.75 µM (inactive); with LXFL 529, 1.82 µM (inactive); in the experiment with NCI-H226 it was 15.7 µM (inactive). The GI50 in the experiment with NCI/ADR-RES is 1.87 µM (inactive); in the experiment with OVCAR-5, 9.35 µM (inactive); with OVCAR-8 it was 1.97 µM (inactive); in the experiment with RPMI-8226, 2.65 µM (inactive); with SF-295, 5.01 µM (inactive); in the experiment with SK-OV-3 it was 20 µM (inactive). Further, the GI50 with SW-620 is 2.58 µM (inactive); in the experiment on UACC-62, 4.94 µM (inactive).

As to `Cc1cc(NCCCCCCCCNc2cc(C)nc3cc(N)ccc23)c2ccc(N)cc2n1`, the GI50 with 786-0 is 18.9 µM (inactive); in the experiment with A549 it was 18.3 µM (inactive); in the experiment on COLO 205 it was 6.4 µM (inactive); with HCC 2998 it was 15.1 µM (inactive); in the experiment with HOP-62, 26.9 µM (inactive); with K562, 1.95 µM (inactive). Also, the GI50 was 12.5 µM (inactive) in the experiment on KM12; 17.1 µM (inactive) with LOX IMVI; 11.3 µM (inactive) in the experiment on LXFL 529; 24.4 µM (inactive) in the experiment with NCI-H226; 22.5 µM (inactive) in the experiment on OVCAR-5; 17.2 µM (inactive) with OVCAR-8. The GI50 was 6.68 µM (inactive) in the experiment on RPMI-8226, 18.2 µM (inactive) in the experiment with SF-295, 38.5 µM (inactive) with SK-OV-3 and 17 µM (inactive) with UACC-62.
